According to US20040167330A1, “Novel chelating agents and conjugates thereof, their synthesis and use as diagnois and therapeutic agents” (priority 2004, published 2004):
“Also recorded” adds a separate entry of the source.

Assays:
human plasma proteins = assay: In vitro binding to human plasma proteins (equilibration dialysis or ultrafiltration); assay type: in vitro ADME; settings: 37° C.
Method: 3. Determination of the in vitro binding capacity of ^88Y-DO3A-P^BnNH2 complex to human plasma proteins
3. Binding of the 88Y-DO3A-P^BnNH2 complex to human plasma proteins was evaluated at 37° C. using equilibration dialysis or ultrafiltration. 10.2±2.3% or 3.7±3.2% were bound to plasma proteins, respectively. Pharmacokinetically, reversible binding is of no importance.

[1] = Elimination (cumulative excretion of radioactivity) of ^88Y-DO3A-P^BnNH2 complex; assay type: in vivo; settings: Wistar SPF rats
Method: 2. Determination of elimination (mode and rate) of ^88Y-DO3A-P^BnNH2 complex from the organism
2. Mode and rate of elimination of ^88Y-DO3A-P^BnNH2 complex from the organism as determined by cumulative excretion of radioactivity in intervals of 0-2 h and 0-24 h respectively after intravenous injection of ^88Y-DO3A-P^BnNH2 complex into the vena saphena of Wistar SPF rats are summarized in Table 4.

[2] = Stability of complex in human plasma; assay type: in vitro ADME; settings: for High molecular weight form / Low molecular weight form: human plasma, 37° C.
Method: 4. Determination of the stability of 88Y-DO3A-P^BnNH2 complex in human plasma
4. Stability of the ^88Y-DO3A-P^BnNH2 complex was determined in human plasma at 37° C. over 14 days using standardised in vitro conditions. […] Dissociation of the radionuclide ^88Y-yttrium from the ^88Y-DO3A-P^BnNH2 complex and binding to plasma proteins (predominantly to complex forming transferrin, a protein which prefers to form complexes with trivalent elements such as Fe^3+, Co^3+ but also Y^3+) was shown only for <2% of the total activity administered to human plasma.

[3] = Formation of ^90Y-yttrium complex, radiochemical yield by TLC/HPLC; assay type: physicochemical; settings: reaction time 0 min, [Y] = 1,2 · 10^−3 mol/l, ratio of ligand: Y = 1:1, pH = 5.5
[4] = as above; assay type: physicochemical
Method: Purified DO3A-P^BnNH2 was dissolved in demineralised water at a concentration of 9×10^−5 mol/l. 0.1 ml of this solution were transferred into a small reaction vial (PE). 0.1 ml ^90Y-yttrium chloride (YCl3) in 0.1 M HCl and 0.1 ml ammonium acetate buffer, pH 5.7, were added. The reaction solutions were mixed well. pH values were measured continuously while preparing the solution. 24 identical solutions were prepared accordingly and stored at 25° C. and 37° C. respectively.
Samples were taken after 15 min, 30 min, 45 min, 60 min, 90 min and 120 min and analyzed by thin layer chromatography using silica gel (POLYGRAM SIL G/UV254) or, preferably, paper (Whatman No. 1) as solid phase. TLC was run using either solvent I: 0.1 N ammonium acetate solution or solvent II: 3% sodium chloride solution as developing solution. In parallel, samples (20 μl) were analyzed by gel filtration using HPLC. The HPLC-system comprised a gamma detector (Berthold LB 506) and a UV/VIS spectrometer (Waters 486) installed in two flow through cells, respectively.
Temperature- and time-dependent studies have shown a very short reaction time for the complex formation of a ^90Y-Yttrium-DO3A-complex.
Furthermore, the effect of pH and ligand concentration on radiochemical yield was evaluated. Table 5 summarizes the results relating to the variation of pH between pH 2.0 and pH 8.9 while maintaining a constant ratio of DO3A-P^BnNH2 and Y of 3:1 and a reaction time of 60 min at 25° C. Accordingly, best labeling results are achieved at pH values of 4.9-8.0. Table 6 summarizes the results relating to the variation of the ligand concentration DO3A-P^BnNH2: Y between 1:1 up to 7:1 while maintaining a constant pH range (pH 5.2) and reaction time of 60 min at 25° C.

[5] = Relaxation measurements of gadolinium(III) complex solutions; assay type: physicochemical; settings: gadolinium(III) complex in solution; at 10 MHz
Method: Solution was stirred for 1 h at room temperature and pH was set to approx. pH 7 by careful addition of solid KOH. Thus prepared solution as well as other solutions of different concentration which were prepared by a similar approach (all containing known amount of water and gadolinium(III)) were used for relaxation measurements. The solutions gave relaxivity 7.86 mmol^−1 s^−1 (at 10 MHz).
Solution of gadolinium(III) complex of compound 1 for relaxation measurements were prepared similarly to Example 51. The solutions gave relaxivity 7.54 mmol-1 s^−1 (at 10 MHz). Exchange half-life of coordinated water molecule 70 ns was determined (from temperature dependence of ^17O NMR parameters).

Nc1ccc(CP(=O)([O-])CN2CCN(CC(=O)[O-])CCN(CC(=O)[O-])CCN(CC(=O)[O-])CC2)cc1.[88Y+3] [^88Y-DO3A-P^BnNH2 complex]
bound to plasma proteins (human plasma proteins; equilibration dialysis): 10.2±2.3% | bound to plasma proteins (human plasma proteins; ultrafiltration): 3.7±3.2% | Cumulative excretion of radioactivity ([1]; Faeces, interval 0-24 h after intravenous injection): 3.6 ± 2.8% | Cumulative excretion of radioactivity ([1]; Urine, interval 0-2 h after intravenous injection): 79.4 ± 5.2% | Cumulative excretion of radioactivity ([1]; Urine, interval 0-24 h after intravenous injection): 84.3 ± 5.0% | Dissociation of the radionuclide ^88Y-yttrium from the complex and binding to plasma proteins ([2]; human plasma at 37° C. over 14 days): < 2 % of the total activity administered to human plasma | Stability of the complex in human plasma ([2]; human plasma at 37° C. over 14 days, standardised in vitro conditions): highly stable; also recorded: high stability | High molecular weight form ([2]; Day 0, Experiment No. 1): 0.28% | Low molecular weight form ([2]; Day 0, Experiment No. 1): 99.72% | High molecular weight form ([2]; Day 0, Experiment No. 2): 0.10% | Low molecular weight form ([2]; Day 0, Experiment No. 2): 99.90% | High molecular weight form ([2]; Day 3, Experiment No. 1): 0.75% | Low molecular weight form ([2]; Day 3, Experiment No. 1): 99.25% | High molecular weight form ([2]; Day 3, Experiment No. 2): 0.56% | Low molecular weight form ([2]; Day 3, Experiment No. 2): 99.44% | High molecular weight form ([2]; Day 5, Experiment No. 1): 0.72% | Low molecular weight form ([2]; Day 5, Experiment No. 1): 99.28% | High molecular weight form ([2]; Day 5, Experiment No. 2): 0.91% | Low molecular weight form ([2]; Day 5, Experiment No. 2): 99.09% | High molecular weight form ([2]; Day 7, Experiment No. 1): 0.79% | Low molecular weight form ([2]; Day 7, Experiment No. 1): 99.21% | High molecular weight form ([2]; Day 7, Experiment No. 2): 0.73% | Low molecular weight form ([2]; Day 7, Experiment No. 2): 99.27% | High molecular weight form ([2]; Day 10, Experiment No. 1): 0.91% | Low molecular weight form ([2]; Day 10, Experiment No. 1): 99.09% | High molecular weight form ([2]; Day 10, Experiment No. 2): 1.08% | Low molecular weight form ([2]; Day 10, Experiment No. 2): 98.92% | High molecular weight form ([2]; Day 12, Experiment No. 1): 1.17% | Low molecular weight form ([2]; Day 12, Experiment No. 1): 98.83% | High molecular weight form ([2]; Day 12, Experiment No. 2): 1.35% | Low molecular weight form ([2]; Day 12, Experiment No. 2): 98.65% | High molecular weight form ([2]; Day 14, Experiment No. 1): 1.68% | Low molecular weight form ([2]; Day 14, Experiment No. 1): 98.32% | High molecular weight form ([2]; Day 14, Experiment No. 2): 1.80% | Low molecular weight form ([2]; Day 14, Experiment No. 2): 98.20%

Nc1ccc(CP(=O)([O-])CN2CCN(CC(=O)[O-])CCN(CC(=O)[O-])CCN(CC(=O)[O-])CC2)cc1.[90Y+3] [^90Y-DO3A-P^BnNH2-complex]
radiochemical yield ([3]; 25° C.): 88% | radiochemical yield ([3]; 37° C.): 88% | radiochemical yield ([4]; pH 2.0, [Y] = 1.5 · 10^−5 mol/l, ratio of ligand: Y = 3:1, reaction time 60 min, 25° C.): 12% | radiochemical yield ([4]; pH 3.0, [Y] = 1.5 · 10^−5 mol/l, ratio of ligand: Y = 3:1, reaction time 60 min, 25° C.): 54% | radiochemical yield ([4]; pH 3.9, [Y] = 1.5 · 10^−5 mol/l, ratio of ligand: Y = 3:1, reaction time 60 min, 25° C.): 77% | radiochemical yield ([4]; pH 4.4, [Y] = 1.5 · 10^−5 mol/l, ratio of ligand: Y = 3:1, reaction time 60 min, 25° C.): 93% | radiochemical yield ([4]; pH 4.9, [Y] = 1.5 · 10^−5 mol/l, ratio of ligand: Y = 3:1, reaction time 60 min, 25° C.): 97% | radiochemical yield ([4]; pH 5.6, [Y] = 1.5 · 10^−5 mol/l, ratio of ligand: Y = 3:1, reaction time 60 min, 25° C.): 95% | radiochemical yield ([4]; pH 6.0, [Y] = 1.5 · 10^−5 mol/l, ratio of ligand: Y = 3:1, reaction time 60 min, 25° C.): 93% | radiochemical yield ([4]; pH 6.2, [Y] = 1.5 · 10^−5 mol/l, ratio of ligand: Y = 3:1, reaction time 60 min, 25° C.): 97% | radiochemical yield ([4]; pH 6.6, [Y] = 1.5 · 10^−5 mol/l, ratio of ligand: Y = 3:1, reaction time 60 min, 25° C.): 98% | radiochemical yield ([4]; pH 6.8, [Y] = 1.5 · 10^−5 mol/l, ratio of ligand: Y = 3:1, reaction time 60 min, 25° C.): 98% | radiochemical yield ([4]; pH 8.0, [Y] = 1.5 · 10^−5 mol/l, ratio of ligand: Y = 3:1, reaction time 60 min, 25° C.): 98% | radiochemical yield ([4]; pH 8.9, [Y] = 1.5 · 10^−5 mol/l, ratio of ligand: Y = 3:1, reaction time 60 min, 25° C.): 91% | radiochemical yield ([4]; ratio of ligand:Y 1:1, [Y] = 1.2 · 10^−3 mol/l, pH = 5.2, reaction time 60 min, 25° C.): 94% | radiochemical yield ([4]; ratio of ligand:Y 2:1, [Y] = 1.2 · 10^−3 mol/l, pH = 5.2, reaction time 60 min, 25° C.): 97% | radiochemical yield ([4]; ratio of ligand:Y 3:1, [Y] = 1.2 · 10^−3 mol/l, pH = 5.2, reaction time 60 min, 25° C.): 98% | radiochemical yield ([4]; ratio of ligand:Y 4:1, [Y] = 1.2 · 10^−3 mol/l, pH = 5.2, reaction time 60 min, 25° C.): 99% | radiochemical yield ([4]; ratio of ligand:Y 5:1, [Y] = 1.2 · 10^−3 mol/l, pH = 5.2, reaction time 60 min, 25° C.): 97% | radiochemical yield ([4]; ratio of ligand:Y 6:1, [Y] = 1.2 · 10^−3 mol/l, pH = 5.2, reaction time 60 min, 25° C.): 99% | radiochemical yield ([4]; ratio of ligand:Y 7:1, [Y] = 1.2 · 10^−3 mol/l, pH = 5.2, reaction time 60 min, 25° C.): 97% | radiochemical yield ([4]; reaction time 15 min, 25° C., [Y] = 1,2 · 10^−3 mol/l, ratio of ligand: Y = 1:1, pH = 5.5): 97% | radiochemical yield ([4]; reaction time 15 min, 37° C., [Y] = 1,2 · 10^−3 mol/l, ratio of ligand: Y = 1:1, pH = 5.5): 98% | radiochemical yield ([4]; reaction time 30 min, 25° C., [Y] = 1,2 · 10^−3 mol/l, ratio of ligand: Y = 1:1, pH = 5.5): 97% | radiochemical yield ([4]; reaction time 30 min, 37° C., [Y] = 1,2 · 10^−3 mol/l, ratio of ligand: Y = 1:1, pH = 5.5): 98% | radiochemical yield ([4]; reaction time 45 min, 25° C., [Y] = 1,2 · 10^−3 mol/l, ratio of ligand: Y = 1:1, pH = 5.5): 97% | radiochemical yield ([4]; reaction time 45 min, 37° C., [Y] = 1,2 · 10^−3 mol/l, ratio of ligand: Y = 1:1, pH = 5.5): 98% | radiochemical yield ([4]; reaction time 60 min, 25° C., [Y] = 1,2 · 10^−3 mol/l, ratio of ligand: Y = 1:1, pH = 5.5): 97% | radiochemical yield ([4]; reaction time 60 min, 37° C., [Y] = 1,2 · 10^−3 mol/l, ratio of ligand: Y = 1:1, pH = 5.5): 97% | radiochemical yield ([4]; reaction time 90 min, 25° C., [Y] = 1,2 · 10^−3 mol/l, ratio of ligand: Y = 1:1, pH = 5.5): 98% | radiochemical yield ([4]; reaction time 90 min, 37° C., [Y] = 1,2 · 10^−3 mol/l, ratio of ligand: Y = 1:1, pH = 5.5): 98% | radiochemical yield ([4]; reaction time 120 min, 25° C., [Y] = 1,2 · 10^−3 mol/l, ratio of ligand: Y = 1:1, pH = 5.5): 98% | radiochemical yield ([4]; reaction time 120 min, 37° C., [Y] = 1,2 · 10^−3 mol/l, ratio of ligand: Y = 1:1, pH = 5.5): 99%

Gadolinium(III) Complex of DO3A-P [gadolinium(III) complex of compound 1]
relaxivity [5]: 7.54 mmol⁻¹ s⁻¹
